± gives the expanded uncertainty stated by the source.
Assay: xn = mol fraction of the nth substance listed
Conditions: 100 kPa, Liquid; for speed of sound: Frequency=3 MHz, Single path-length method; for mass density: Vibrating tube method

CC(O)CCO (stereo not given) [1,3-butanediol] + CCCC(=O)OCC
Conditions | mass density [kg/m3] | speed of sound [m/s]
298.15 K, x2 = 0 | 1001.87 ± 2 | 1527.9 ± 1.4
298.15 K, x2 = 0.1034 | 988.68 ± 2 | 1491.1 ± 1.4
298.15 K, x2 = 0.203 | 975.97 ± 2 | 1455.7 ± 1.3
298.15 K, x2 = 0.305 | 962.97 ± 2 | 1419.4 ± 1.2
298.15 K, x2 = 0.3835 | 952.95 ± 2 | 1391.4 ± 1.2
298.15 K, x2 = 0.4936 | 938.91 ± 2 | 1352.2 ± 1.1
298.15 K, x2 = 0.5811 | 927.76 ± 2 | 1321.1 ± 1.1
298.15 K, x2 = 0.6878 | 914.14 ± 2 | 1283.1 ± 1.1
298.15 K, x2 = 0.7997 | 899.87 ± 2 | 1243.3 ± 1
298.15 K, x2 = 0.8818 | 889.39 ± 2 | 1214.1 ± 1
303.15 K, x2 = 0 | 998.41 ± 2 | 1514 ± 1.4
303.15 K, x2 = 0.1034 | 985.01 ± 2 | 1476.5 ± 1.4
303.15 K, x2 = 0.203 | 972.1 ± 2 | 1440.3 ± 1.3
303.15 K, x2 = 0.305 | 958.89 ± 2 | 1403.3 ± 1.2
303.15 K, x2 = 0.3835 | 948.71 ± 2 | 1374.8 ± 1.2
303.15 K, x2 = 0.4936 | 934.45 ± 2 | 1334.8 ± 1.1
303.15 K, x2 = 0.5811 | 923.12 ± 2 | 1303.1 ± 1.1
303.15 K, x2 = 0.6878 | 909.28 ± 2 | 1264.3 ± 1.1
303.15 K, x2 = 0.7997 | 894.79 ± 2 | 1223.7 ± 1
303.15 K, x2 = 0.8818 | 884.14 ± 2 | 1193.9 ± 1
308.15 K, x2 = 0 | 994.94 ± 2 | 1500.1 ± 1.4
308.15 K, x2 = 0.1034 | 981.34 ± 2 | 1461.9 ± 1.4
308.15 K, x2 = 0.203 | 968.23 ± 2 | 1425 ± 1.3
308.15 K, x2 = 0.305 | 954.82 ± 2 | 1387.2 ± 1.2
308.15 K, x2 = 0.3835 | 944.49 ± 2 | 1358.2 ± 1.2
308.15 K, x2 = 0.4936 | 930.01 ± 2 | 1317.4 ± 1.1
308.15 K, x2 = 0.5811 | 918.51 ± 2 | 1285.1 ± 1.1
308.15 K, x2 = 0.6878 | 904.47 ± 2 | 1245.5 ± 1.1
308.15 K, x2 = 0.7997 | 889.75 ± 2 | 1204.1 ± 1
308.15 K, x2 = 0.8818 | 878.94 ± 2 | 1173.7 ± 1
313.15 K, x2 = 0 | 991.49 ± 2 | 1486.2 ± 1.4
313.15 K, x2 = 0.1034 | 977.69 ± 2 | 1447.2 ± 1.4
313.15 K, x2 = 0.203 | 964.38 ± 2 | 1409.6 ± 1.3
313.15 K, x2 = 0.305 | 950.77 ± 2 | 1371.2 ± 1.2
313.15 K, x2 = 0.3835 | 940.28 ± 2 | 1341.5 ± 1.2
313.15 K, x2 = 0.4936 | 925.59 ± 2 | 1300 ± 1.2
313.15 K, x2 = 0.5811 | 913.91 ± 2 | 1267 ± 1.1
313.15 K, x2 = 0.6878 | 899.66 ± 2 | 1226.8 ± 1.1
313.15 K, x2 = 0.7997 | 884.72 ± 2 | 1184.6 ± 1
313.15 K, x2 = 0.8818 | 873.76 ± 2 | 1153.6 ± 1
318.15 K, x2 = 0 | 988.02 ± 2 | 1472.3 ± 1.4
318.15 K, x2 = 0.1034 | 974.01 ± 2 | 1432.6 ± 1.4
318.15 K, x2 = 0.203 | 960.49 ± 2 | 1394.3 ± 1.3
318.15 K, x2 = 0.305 | 946.68 ± 2 | 1355.1 ± 1.2
318.15 K, x2 = 0.3835 | 936.03 ± 2 | 1324.9 ± 1.2
318.15 K, x2 = 0.4936 | 921.1 ± 2 | 1282.6 ± 1.2
318.15 K, x2 = 0.5811 | 909.25 ± 2 | 1249 ± 1.1
318.15 K, x2 = 0.6878 | 894.78 ± 2 | 1208 ± 1.1
318.15 K, x2 = 0.7997 | 879.61 ± 2 | 1165 ± 1
318.15 K, x2 = 0.8818 | 868.48 ± 2 | 1133.4 ± 1
323.15 K, x2 = 0 | 984.56 ± 2 | 1458.4 ± 1.4
323.15 K, x2 = 0.1034 | 970.34 ± 2 | 1417.9 ± 1.4
323.15 K, x2 = 0.203 | 956.63 ± 2 | 1378.9 ± 1.3
323.15 K, x2 = 0.305 | 942.62 ± 2 | 1339 ± 1.2
323.15 K, x2 = 0.3835 | 931.81 ± 2 | 1308.3 ± 1.2
323.15 K, x2 = 0.4936 | 916.67 ± 2 | 1265.2 ± 1.2
323.15 K, x2 = 0.5811 | 904.65 ± 2 | 1231 ± 1.1
323.15 K, x2 = 0.6878 | 889.97 ± 2 | 1189.2 ± 1.1
323.15 K, x2 = 0.7997 | 874.58 ± 2 | 1145.4 ± 1
323.15 K, x2 = 0.8818 | 863.28 ± 2 | 1113.3 ± 1

OCCCCO [1,4-butanediol] + CCCC(=O)OCC
Conditions | mass density [kg/m3] | speed of sound [m/s]
298.15 K, x2 = 0 | 1012.8 ± 2 | 1601.9 ± 1.1
298.15 K, x2 = 0.1009 | 998.83 ± 2 | 1558.5 ± 1.1
298.15 K, x2 = 0.1986 | 985.3 ± 2 | 1516.5 ± 1.1
298.15 K, x2 = 0.3254 | 967.74 ± 2 | 1461.9 ± 1.1
298.15 K, x2 = 0.4231 | 954.2 ± 2 | 1419.9 ± 1.1
298.15 K, x2 = 0.5008 | 943.44 ± 2 | 1386.5 ± 1.1
298.15 K, x2 = 0.5895 | 931.16 ± 2 | 1348.4 ± 1
298.15 K, x2 = 0.7128 | 914.08 ± 2 | 1295.3 ± 1
298.15 K, x2 = 0.8015 | 901.8 ± 2 | 1257.2 ± 1
298.15 K, x2 = 0.9105 | 886.7 ± 2 | 1210.3 ± 1
303.15 K, x2 = 0 | 1009.77 ± 2 | 1590.3 ± 1.1
303.15 K, x2 = 0.1009 | 995.55 ± 2 | 1545.9 ± 1.1
303.15 K, x2 = 0.1986 | 981.78 ± 2 | 1503 ± 1.1
303.15 K, x2 = 0.3254 | 963.91 ± 2 | 1447.4 ± 1.1
303.15 K, x2 = 0.4231 | 950.15 ± 2 | 1404.4 ± 1.1
303.15 K, x2 = 0.5008 | 939.2 ± 2 | 1370.3 ± 1.1
303.15 K, x2 = 0.5895 | 926.7 ± 2 | 1331.4 ± 1
303.15 K, x2 = 0.7128 | 909.32 ± 2 | 1277.2 ± 1
303.15 K, x2 = 0.8015 | 896.82 ± 2 | 1238.3 ± 1
303.15 K, x2 = 0.9105 | 881.46 ± 2 | 1190.4 ± 1
308.15 K, x2 = 0 | 1006.74 ± 2 | 1578.6 ± 1.1
308.15 K, x2 = 0.1009 | 992.28 ± 2 | 1533.4 ± 1.1
308.15 K, x2 = 0.1986 | 978.27 ± 2 | 1489.5 ± 1.1
308.15 K, x2 = 0.3254 | 960.1 ± 2 | 1432.7 ± 1.1
308.15 K, x2 = 0.4231 | 946.09 ± 2 | 1388.9 ± 1.1
308.15 K, x2 = 0.5008 | 934.96 ± 2 | 1354 ± 1.1
308.15 K, x2 = 0.5895 | 922.24 ± 2 | 1314.2 ± 1
308.15 K, x2 = 0.7128 | 904.57 ± 2 | 1258.9 ± 1
308.15 K, x2 = 0.8015 | 891.85 ± 2 | 1219.2 ± 1
308.15 K, x2 = 0.9105 | 876.23 ± 2 | 1170.3 ± 1
313.15 K, x2 = 0 | 1003.7 ± 2 | 1567 ± 1.1
313.15 K, x2 = 0.1009 | 988.99 ± 2 | 1520.7 ± 1.1
313.15 K, x2 = 0.1986 | 974.75 ± 2 | 1476 ± 1.1
313.15 K, x2 = 0.3254 | 956.27 ± 2 | 1417.9 ± 1.1
313.15 K, x2 = 0.4231 | 942.03 ± 2 | 1373.2 ± 1.1
313.15 K, x2 = 0.5008 | 930.7 ± 2 | 1337.6 ± 1.1
313.15 K, x2 = 0.5895 | 917.77 ± 2 | 1297 ± 1
313.15 K, x2 = 0.7128 | 899.8 ± 2 | 1240.5 ± 1
313.15 K, x2 = 0.8015 | 886.87 ± 2 | 1199.9 ± 1
313.15 K, x2 = 0.9105 | 870.99 ± 2 | 1150 ± 1
318.15 K, x2 = 0 | 1000.67 ± 2 | 1555.3 ± 1.1
318.15 K, x2 = 0.1009 | 985.72 ± 2 | 1508.1 ± 1.1
318.15 K, x2 = 0.1986 | 971.24 ± 2 | 1462.5 ± 1.1
318.15 K, x2 = 0.3254 | 952.45 ± 2 | 1403.2 ± 1.1
318.15 K, x2 = 0.4231 | 937.98 ± 2 | 1357.6 ± 1.1
318.15 K, x2 = 0.5008 | 926.46 ± 2 | 1321.3 ± 1.1
318.15 K, x2 = 0.5895 | 913.32 ± 2 | 1279.8 ± 1
318.15 K, x2 = 0.7128 | 895.05 ± 2 | 1222.2 ± 1
318.15 K, x2 = 0.8015 | 881.9 ± 2 | 1180.7 ± 1
318.15 K, x2 = 0.9105 | 865.75 ± 2 | 1129.8 ± 1
323.15 K, x2 = 0 | 997.63 ± 2 | 1543.7 ± 1.1
323.15 K, x2 = 0.1009 | 982.43 ± 2 | 1495.6 ± 1.1
323.15 K, x2 = 0.1986 | 967.72 ± 2 | 1449 ± 1.1
323.15 K, x2 = 0.3254 | 948.62 ± 2 | 1388.6 ± 1.1
323.15 K, x2 = 0.4231 | 933.91 ± 2 | 1342 ± 1.1
323.15 K, x2 = 0.5008 | 922.21 ± 2 | 1305 ± 1.1
323.15 K, x2 = 0.5895 | 908.85 ± 2 | 1262.7 ± 1
323.15 K, x2 = 0.7128 | 890.28 ± 2 | 1204 ± 1
323.15 K, x2 = 0.8015 | 876.92 ± 2 | 1161.7 ± 1
323.15 K, x2 = 0.9105 | 860.51 ± 2 | 1109.8 ± 1
